Results on ten molecules are retold here after patent US4294833A, “Substituted 4-hydroxy-isophthalic acid picolylamides having a pharmaceutical activity in thromboembolic disorders” (Societa Italo-Britannica, priority 1977, dated 1981).

For data set [1], the system named is thrombin-induced coagulation of platelet rich plasma. Kind of data set: Antithrombin activity on PRP, Hartert's thromboelastograph. In kind it is in vivo, New Zealand rabbits. The settings on record: Oryctolagus cuniculus, Platelet, ip, percent decrease of index ma/[r+k] vs before treatment; 20 mg/kg intraperitoneal, rabbits. The procedure: Determination of the antithrombin activity
The antithrombin activity on the PRP (platelet rich plasma) obtained following the above described method was assessed by Hartert's thromboelastograph (Hellige model). The coagulation was induced by adding to 0.25 ml of plasma 0.06 ml of a thrombin solution (Roche Topostasin® per os) at 60 units*, pH 7.4**. The antithrombin activity was assessed in terms of a percent decrease of the index (ma/[r+k]) which was calculated from the thromboelastograph diagram, wherein r is the reaction time, k is the speed of the coagulum formation and ma is the maximum spread of the tong, after an intraperitoneal treatment with a dose of 20 mg/kg of each compound under examination, referred to the same index obtained before the treatment (control).
(§1) In tables I and II are further indicated for each compound the method of preparation; the melting point PF in °C; the platelet antiaggregant activity (AAP) expressed in terms of DI50 in mg/kg, referred to ADP and thrombin respectively; the antithrombin activity (AT) in %; the anticoagulant activity (AC) in %; the fibrinolytic activity (FL) in %; the acute toxicity (LD50) in mice, intraperitoneally, in mg/kg, as previously defined.

Another data set deals with blood coagulum. Kind of data set: Fibrinolytic activity, Fearnley method (lysis of blood coagulum in toto). The format is in vivo. The settings on record: Oryctolagus cuniculus, ip, 0.5 h, percent decrease of coagulum weight after 30 minutes at 37° C.; 25 mg/kg intraperitoneal, rabbits; read-out: fibrinolytic activity (FL). The procedure: Determination of the fibrinolytic activity
The determination of the fibrinolytic activity was made following the Fearnley method for the lysis of the blood coagulum in toto.
0.2 ml of blood were withdrawn from the marginal vein of the ear of rabbits treated in the same way as the previously described tests, before and after an intraperitoneal injection of the compounds under test at a dose level of 25 mg/kg for each compound.
The blood samples were placed in test tubes containing 1.7 ml of phosphate buffer at pH 7.4 and 0.1 ml of thrombin (Roche Topostasin ® per os) at 50 units NIH/ml, and maintained in an ice bath. The test tubes were maintained at said temperature for 30 minutes and thereupon were transferred to a temperature controlled water bath at 37° C.
The fibrinolytic activity was determined as a percent decrease of the coagulum weight, measured after incubation for 30 minutes at 37° C.
as §1

Data set [2] concerns CaCl2-induced plasma coagulation. The experiment in a line: Anticoagulant activity on PRP, Hartert's thromboelastograph. The settings on record: Oryctolagus cuniculus, ip, percent increase of total time for coagulum formation (r+k) vs before treatment; 25 mg/kg intraperitoneal, rabbits; read-out: anticoagulant activity (AC). The format is in vivo, New Zealand rabbits. Here is the method: Determination of the anticoagulant activity
The anticoagulant activity was also assessed on PRP of animals treated as described in the preceding methods, by using again Hartert's thromboelastograph method.
The plasma coagulation was induced by adding to 0.25 ml PRP a 1.29% solution of CaCl2.
The anticoagulant effect was determined as a percent increase of the total time for the coagulum formation (the index r+k can be obtained from the thromboelastograph diagram) in a plasma after treatment, referred to the same index obtained before the treatment (control). Again the dose level was 25 mg/kg for each compound under examination, intraperitoneally.
as §1

For data set [3], the system named is platelet aggregation induced by thrombin. Kind of data set: Platelet aggregation inhibitory activity in vivo (Born aggregometer), thrombin-induced. Also noted: species or system New Zealand rabbits. The settings on record: Oryctolagus cuniculus, Platelet, ip, dose for 50% inhibition of thrombin-induced aggregation curve; rabbits, intraperitoneal, blood 2, 4 and 6 hours after injection; read-out: platelet antiaggregant activity (AAP), DI50, Thrombin. The procedure: (§2) Determination of the platelet aggregation inhibitory activity in vivo
(§3) The activity of the above described compounds as platelet antiaggregant was tested in vivo on rabbits, by the Born aggregometer. The inhibition of the aggregation curve induced by ADP and thrombin was assessed with different drug concentrations according to the platelet reactivity. New Zealand rabbits which had been held fasting for 12 hours with water ad libitum, were anaesthetized with Nembutal in a dose of 35 mg/kg intramuscolarly. The blood was withdrawn from the carotidal arthery, before (control) and 2, 4, and 6 hours after the intraperitoneal injection of the compounds under examination (at the dose indicated below). The blood samples were taken up in a 3.8% aqueous solution of sodium citrate in a ratio 10:1 and thereupon centrifuged at 1500 r.p.m. for 10 minutes, for obtaining a PRP (platelet rich plasma). A portion of such a plasma was thereupon centrifuged at 8000 r.p.m. for 10 minutes, for obtaining a PPP (platelet lean plasma) which was used for zeroing the measuring apparatus.
(§4) From the results of said experiments, there was determined the dose of each product in mg/kg body weight able to induce a 50% inhibition of the aggregation curve (DI50) after treatment, referred to the curve obtained by the same control plasma before treatment.
as §1

Data set [4] deals with platelet aggregation induced by ADP. Kind of data set: Platelet aggregation inhibitory activity in vivo (Born aggregometer), ADP-induced. The settings on record: Oryctolagus cuniculus, Platelet, ip, dose for 50% inhibition of ADP-induced aggregation curve; rabbits, intraperitoneal, blood 2, 4 and 6 hours after injection; read-out: platelet antiaggregant activity (AAP), DI50, ADP. Also noted: species or system New Zealand rabbits. The procedure: as §2, §3, §4, §1

The nature of data set [5]: Acute toxicity, intraperitoneal. The settings on record: mouse, in vivo, ip, male Swiss mice, intraperitoneal, 7 days observation; preliminary, by graphic interpolation; read-out: acute toxicity (LD50 / DL50). The procedure: The acute toxicity limit was determined intraperitoneally on male Swiss mice, weighing 20±2 g, held fasting for 18 hours with water ad libitum.
The animals were maintained under observation for 7 days of treatment, by examining the general symptomatology and noting the death sequency. The preliminary DL50 in mg/kg body weight was calculated by graphic interpolation of the results as obtained.
as §1

Consider `CCOc1ccc(C(=O)N(CCC(C)C)Cc2cccnc2)cc1C(=O)N(CCC(C)C)Cc1cccnc1` [Example 45], for which the inhibition in vivo at 20 mg/kg in data set [1] stood at 35.8%. Besides, in the data set with blood coagulum, the fibrinolytic activity (percent decrease of coagulum weight) at 25 mg/kg came out at 29.9%. Moreover, the change in vivo at 25 mg/kg in data set [2] was determined as 16.3%. Moreover, the ED50 turned out to be 22.3 mg/kg in data set [3] and 30.6 mg/kg in data set [4]. Also, the LD50 at 168 h in data set [5] stood at 460 mg/kg.

Molecule `CC=COc1c(Cl)cc(C(=O)N(Cc2cccnc2)C(CC)CC)cc1C(=O)N(Cc1cccnc1)C(CC)CC` [Example 50] came in with an inhibition in vivo at 20 mg/kg in data set [1] of 27.6%. For the same molecule, the fibrinolytic activity (percent decrease of coagulum weight) at 25 mg/kg in the data set with blood coagulum was determined as 24.6%. The change in vivo at 25 mg/kg in data set [2] came to 13.8%. Also, the ED50 in data set [3] turned out to be 33.8 mg/kg; in data set [4] it was 52.2 mg/kg. The LD50 at 168 h in data set [5] is 198 mg/kg.

In turn, `CCCCCCOc1ccc(C(=O)NCc2ccncc2)cc1C(=O)NCc1ccncc1` [Example 60] had an inhibition in vivo at 20 mg/kg in data set [1] of 48.6%. In addition, in the data set on blood coagulum, the fibrinolytic activity (percent decrease of coagulum weight) at 25 mg/kg was found to be 38.5%. In addition, the change in vivo at 25 mg/kg in data set [2] came to 22.2%. In addition, the results for the ED50 in data set [3] and in data set [4] were 17.5 mg/kg and 20.3 mg/kg, respectively. The LD50 at 168 h in data set [5] stood at 206 mg/kg.

In turn, `CCCCCOc1c(Cl)cc(C(=O)NCc2cccnc2)cc1C(=O)NCc1cccnc1` [Example 24] registered an inhibition in vivo at 20 mg/kg in data set [1] of 24.4%. Further, the fibrinolytic activity (percent decrease of coagulum weight) at 25 mg/kg in the data set with blood coagulum came out at 6.4%. In addition, in data set [2], the change in vivo at 25 mg/kg amounted to 16%. In addition, the ED50 in data set [3] was found to be 35.6 mg/kg; in data set [4] it was 41.3 mg/kg. In data set [5], the LD50 at 168 h was 371 mg/kg.

`CCC(C)(C)Oc1c(Cl)cc(C(=O)NCc2cccnc2)cc1C(=O)NCc1cccnc1` [Example 29]: the inhibition in vivo at 20 mg/kg in data set [1] worked out at 27.3%. Besides, the fibrinolytic activity (percent decrease of coagulum weight) at 25 mg/kg in the data set on blood coagulum was found to be 24.1%. In addition, in data set [2], the change in vivo at 25 mg/kg stood at 20%. The results for the ED50 in data set [3] and in data set [4] were 30.7 mg/kg and 44.1 mg/kg, respectively. The LD50 at 168 h in data set [5] was 206 mg/kg.

With `CC=COc1c(Cl)cc(C(=O)N(CCC(C)C)Cc2cccnc2)cc1C(=O)N(CCC(C)C)Cc1cccnc1` [Example 49], testing at 20 mg/kg in data set [1] gave an inhibition in vivo of 27.9%. In addition, in the data set with blood coagulum, the fibrinolytic activity (percent decrease of coagulum weight) at 25 mg/kg is 21.7%. In addition, the change in vivo at 25 mg/kg in data set [2] is 15.3%. The ED50 came out at 30.2 mg/kg in data set [3] and 49 mg/kg in data set [4]. The LD50 at 168 h in data set [5] was found to be 193 mg/kg.

Molecule `CC(C)=COc1ccc(C(=O)NCc2cccnc2)cc1C(=O)NCc1cccnc1` [Example 55] yielded an inhibition in vivo at 20 mg/kg in data set [1] of 32.5%. Also, the fibrinolytic activity (percent decrease of coagulum weight) at 25 mg/kg with blood coagulum was 29.5%. Further, the change in vivo at 25 mg/kg in data set [2] is 19.2%. The ED50 in data set [3] is 20.5 mg/kg; in data set [4] it was 28.2 mg/kg. Further, the LD50 at 168 h in data set [5] is 338 mg/kg.

For `CC(C)=COc1ccc(C(=O)NCc2ccncc2)cc1C(=O)NCc1ccncc1` [Example 65], in data set [1], the inhibition in vivo at 20 mg/kg was found to be 34.2%. Moreover, the fibrinolytic activity (percent decrease of coagulum weight) at 25 mg/kg in the data set on blood coagulum is 26.5%. Also, the change in vivo at 25 mg/kg in data set [2] stood at 23.8%. Besides, the ED50 in data set [3] was 24.5 mg/kg; in data set [4], 36.7 mg/kg. In addition, the LD50 at 168 h in data set [5] turned out to be 240 mg/kg.

Consider `COc1ccc(C(=O)N(Cc2cccnc2)C(C)C)cc1C(=O)N(Cc1cccnc1)C(C)C` [Example 43], for which, in data set [1], the inhibition in vivo at 20 mg/kg was determined as 39.4%. In addition, the fibrinolytic activity (percent decrease of coagulum weight) at 25 mg/kg in the data set on blood coagulum worked out at 33.6%. For the same molecule, the change in vivo at 25 mg/kg in data set [2] came out at 20.7%. Further, the ED50 stood at 20.6 mg/kg in data set [3] and 27.3 mg/kg in data set [4]. The LD50 at 168 h in data set [5] stood at 478 mg/kg.

In data set [1], `CCOc1ccc(C(=O)N(Cc2cccnc2)CC(C)C)cc1C(=O)N(Cc1cccnc1)CC(C)C` [Example 44] came in with an inhibition in vivo at 20 mg/kg of 38.6%. Moreover, the fibrinolytic activity (percent decrease of coagulum weight) at 25 mg/kg in the data set on blood coagulum turned out to be 32.5%. Also, in data set [2], the change in vivo at 25 mg/kg was 19.3%. Besides, the ED50 was 20.9 mg/kg in data set [3] and 28.7 mg/kg in data set [4]. In data set [5], the LD50 at 168 h amounted to 465 mg/kg.

As usually defined, the inhibition in vivo is how much of the control response was suppressed. The low end stands for a response near the control, the high end for a response far below the control.
